Experimental data from US11111251B2, “Positive allosteric modulators of the muscarinic acetylcholine receptor M1” (Vanderbilt University, priority 2016, dated 2021).

Target: T1, human mAChR M1 (Homo sapiens, UniProt P11229)
T1 sequence (P11229 1-460): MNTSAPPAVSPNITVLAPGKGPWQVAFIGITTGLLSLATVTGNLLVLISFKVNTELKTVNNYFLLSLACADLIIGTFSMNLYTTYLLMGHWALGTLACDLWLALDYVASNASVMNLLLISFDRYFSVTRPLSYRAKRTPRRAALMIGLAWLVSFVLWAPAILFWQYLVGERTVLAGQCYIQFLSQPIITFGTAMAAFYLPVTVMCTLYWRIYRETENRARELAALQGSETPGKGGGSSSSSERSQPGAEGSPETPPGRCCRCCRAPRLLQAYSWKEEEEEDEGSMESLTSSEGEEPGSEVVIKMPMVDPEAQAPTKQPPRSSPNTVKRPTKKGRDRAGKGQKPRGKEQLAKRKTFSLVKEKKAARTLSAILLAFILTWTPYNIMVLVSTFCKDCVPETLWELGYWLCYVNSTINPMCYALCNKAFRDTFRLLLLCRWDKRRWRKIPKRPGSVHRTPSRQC
Assay: mAChR M1 cell-based functional assay: calcium mobilization, positive allosteric modulator mode (increase in EC20 acetylcholine response)
Details: Table 2, human M1; for EC50: read-out: Human M1 EC50; for Emax: read-out: Human M1 Emax (%)
In short: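 PAM potency reflects the concentration-dependent increase in calcium response to an EC20 acetylcholine challenge, given 144 s into a 300 s read after compound addition at 4 s (EC80 follows at 230 s). Cells were hM1-expressing CHO-K1, loaded 50 min with Fluo-4 AM. Curves used 11 points at 1:3 dilutions and four-parameter logistic fitting.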

SMILES | EC50 [µM] | Emax [%]
Cc1nc(-c2ccc(Cc3cc(C(=O)NC4COC4)nc4ccsc34)cc2)co1 [Compound 147, 7-[[4-(2-methyloxazol-4-yl)phenyl]methyl]-N-(oxetan-3-yl)thieno[3,2-b]pyridine-5-carboxamide] | > 10 | 34
Cn1cc(-c2ccc(Cc3cc(C(=O)N[C@H]4CC[C@@H]4O)nc4ccsc34)cc2)nn1 [Compound 148, N-[(1S,2S)-2-hydroxycyclobutyl]-7-[[4-(1-methyltriazol-4-yl)phenyl]methyl]thieno[3,2-b]pyridine-5-carboxamide] | 0.0331 | 85.5
Cn1cc(-c2ccc(Cc3cc(C(=O)N[C@@H]4CCC[C@H]4O)nc4ccsc34)cc2)nn1 [Compound 149, N-[(1R,2R)-2-hydroxycyclopentyl]-7-[[4-(1-methyltriazol-4-yl)phenyl]methyl]thieno[3,2-b]pyridine-5-carboxamide] | 0.00984 | 85
Cn1cc(-c2ccc(Cc3cc(C(=O)N[C@@H]4CCOC4)nc4ccsc34)cc2)nn1 [Compound 150, 7-[[4-(1-methyltriazol-4-yl)phenyl]methyl]-N-[(3R)-tetrahydrofuran-3-yl]thieno[3,2-b]pyridine-5-carboxamide] | 0.722 | 88.5
Cn1cc(-c2ccc(Cc3cc(C(=O)N[C@H]4CCOC4)nc4ccsc34)cc2)nn1 [Compound 151, 7-[[4-(1-methyltriazol-4-yl)phenyl]methyl]-N-[(3S)-tetrahydrofuran-3-yl]thieno[3,2-b]pyridine-5-carboxamide] | 0.595 | 88.4
Cn1cc(-c2ccc(Cc3cc(C(=O)NC4CCCOC4)nc4ccsc34)cc2)nn1 (centres unmarked) [Compound 152, 7-[[4-(1-methyltriazol-4-yl)phenyl]methyl]-N-tetrahydropyran-3-yl-thieno[3,2-b]pyridine-5-carboxamide] | 0.272 | 92.3
Cn1cc(-c2ccc(Cc3cc(C(=O)N[C@@H]4CCOC[C@H]4O)nc4ccsc34)cc2)nn1 [Compound 153, N-[(3S,4R)-3-hydroxytetrahydropyran-4-yl]-7-[[4-(1-methyltriazol-4-yl)phenyl]methyl]thieno[3,2-b]pyridine-5-carboxamide] | 0.00474 | 59.8
Cn1cc(-c2ccc(Cc3cc(C(=O)N[C@@H]4COCC[C@H]4O)nc4ccsc34)cc2)nn1 [Compound 154, N-[(3R,4R)-4-hydroxytetrahydropyran-3-yl]-7-[[4-(1-methyltriazol-4-yl)phenyl]methyl]thieno[3,2-b]pyridine-5-carboxamide] | 0.0062 | 83.9
Cn1cc(-c2ccc(Cc3cc(C(=O)N[C@@H]4CCCC[C@H]4O)nc4ccsc34)cc2)nn1 [Compound 155, N-[(1R,2R)-2-hydroxycyclohexyl]-7-[[4-(1-methyltriazol-4-yl)phenyl]methyl]thieno[3,2-b]pyridine-5-carboxamide] | 0.0127 | 68.7
CO[C@@H]1CCCC[C@H]1NC(=O)c1cc(Cc2ccc(-c3cn(C)nn3)cc2)c2sccc2n1 [Compound 156, N-[(1R,2R)-2-methoxycyclohexyl]-7-[[4-(1-methyltriazol-4-yl)phenyl]methyl]thieno[3,2-b]pyridine-5-carboxamide] | 0.26 | 89.2
Cn1cc(-c2ccc(Cc3cc(C(=O)N[C@@H]4CCCCC[C@H]4O)nc4ccsc34)cc2)nn1 [Compound 157, N-[(1R,2R)-2-hydroxycycloheptyl]-7-[[4-(1-methyltriazol-4-yl)phenyl]methyl]thieno[3,2-b]pyridine-5-carboxamide] | 0.0242 | 70
Cc1nc(-c2ccc(Cc3cc(C(=O)NC4CC5(COC5)C4)nc4ccsc34)cc2)co1 [Compound 158, 7-[[4-(2-methyloxazol-4-yl)phenyl]methyl]-N-(2-oxaspiro[3.3]heptan-6-yl)thieno[3,2-b]pyridine-5-carboxamide] | 0.343 | 89.7
Cc1nc(-c2ccc(Cc3cc(C(=O)N[C@@H]4CCC[C@H]4O)nc4ccsc34)cc2)co1 [Compound 159, N-[(1R,2R)-2-hydroxycyclopentyl]-7-[[4-(2-methyloxazol-4-yl)phenyl]methyl]thieno[3,2-b]pyridine-5-carboxamide] | 0.141 | 80.5
Cc1nc(-c2ccc(Cc3cc(C(=O)N[C@@H]4CCOC4)nc4ccsc34)cc2)co1 [Compound 160, 7-[[4-(2-methyloxazol-4-yl)phenyl]methyl]-N-[(3R)-tetrahydrofuran-3-yl]thieno[3,2-b]pyridine-5-carboxamide] | 3.93 | 77.5
Cc1nc(-c2ccc(Cc3cc(C(=O)N[C@H]4CCOC4)nc4ccsc34)cc2)co1 [Compound 161, 7-[[4-(2-methyloxazol-4-yl)phenyl]methyl]-N-[(3S)-tetrahydrofuran-3-yl]thieno[3,2-b]pyridine-5-carboxamide] | 3.51 | 78.8
Cc1nc(-c2ccc(Cc3cc(C(=O)NC4CCCCC4)nc4ccsc34)cc2)co1 [Compound 162, N-cyclohexyl-7-[[4-(2-methyloxazol-4-yl)phenyl]methyl]thieno[3,2-b]pyridine-5-carboxamide] | 5.04 | 74
Cc1nc(-c2ccc(Cc3cc(C(=O)NC4CCCN(C)C4)nc4ccsc34)cc2)co1 (centres unmarked) [Compound 163, 7-[[4-(2-methyloxazol-4-yl)phenyl]methyl]-N-(1-methyl-3-piperidyl)thieno[3,2-b]pyridine-5-carboxamide] | 2.53 | 75.4
Cc1nc(-c2ccc(Cc3cc(C(=O)NC4CCN(C)CC4)nc4ccsc34)cc2)co1 [Compound 164, 7-[[4-(2-methyloxazol-4-yl)phenyl]methyl]-N-(1-methyl-4-piperidyl)thieno[3,2-b]pyridine-5-carboxamide] | 2.55 | 74.6
Cc1nc(-c2ccc(Cc3cc(C(=O)N(C)C4CCOCC4)nc4ccsc34)cc2)co1 [Compound 165, N-methyl-7-[[4-(2-methyloxazol-4-yl)phenyl]methyl]-N-tetrahydropyran-4-yl-thieno[3,2-b]pyridine-5-carboxamide] | > 10 | 70.8
Cc1nc(-c2ccc(Cc3cc(C(=O)N[C@@H]4CCOC[C@H]4O)nc4ccsc34)cc2)co1 [Compound 166, N-[(3S,4R)-3-hydroxytetrahydropyran-4-yl]-7-[[4-(2-methyloxazol-4-yl)phenyl]methyl]thieno[3,2-b]pyridine-5-carboxamide] | 0.0168 | 81.6
Cc1nc(-c2ccc(Cc3cc(C(=O)N[C@@H]4COCC[C@H]4O)nc4ccsc34)cc2)co1 [Compound 167, N-[(3R,4R)-4-hydroxytetrahydropyran-3-yl]-7-[[4-(2-methyloxazol-4-yl)phenyl]methyl]thieno[3,2-b]pyridine-5-carboxamide] | 0.0253 | 90.4
Cc1nc(-c2ccc(Cc3cc(C(=O)N[C@@H]4CCCC[C@H]4O)nc4ccsc34)cc2)co1 [Compound 168, N-[(1R,2R)-2-hydroxycyclohexyl]-7-[[4-(2-methyloxazol-4-yl)phenyl]methyl]thieno[3,2-b]pyridine-5-carboxamide] | 0.0842 | 82.6
CO[C@@H]1CCCC[C@H]1NC(=O)c1cc(Cc2ccc(-c3coc(C)n3)cc2)c2sccc2n1 [Compound 169, N-[(1R,2R)-2-methoxycyclohexyl]-7-[[4-(2-methyloxazol-4-yl)phenyl]methyl]thieno[3,2-b]pyridine-5-carboxamide] | 1.36 | 84.1
Cc1nc(-c2ccc(Cc3cc(C(=O)N[C@@H]4CCCCC[C@H]4O)nc4ccsc34)cc2)co1 [Compound 170, N-[(1R,2R)-2-hydroxycycloheptyl]-7-[[4-(2-methyloxazol-4-yl)phenyl]methyl]thieno[3,2-b]pyridine-5-carboxamide] | 0.15 | 82.9
Cc1nc(-c2ccc(Cc3cc(C(=O)NC4CCCNC4=O)nc4ccsc34)cc2)co1 (centres unmarked) [Compound 171, 7-[[4-(2-methyloxazol-4-yl)phenyl]methyl]-N-(2-oxo-3-piperidyl)thieno[3,2-b]pyridine-5-carboxamide] | 0.373 | 93
Cc1nc(-c2ccc(Cc3cc(C(=O)NC4CCCCNC4=O)nc4ccsc34)cc2)co1 (centres unmarked) [Compound 172, 7-[[4-(2-methyloxazol-4-yl)phenyl]methyl]-N-(2-oxoazepan-3-yl)thieno[3,2-b]pyridine-5-carboxamide] | 0.685 | 88.8
Cc1nc(-c2ccc(Cc3cc(C(=O)N4CCC[C@@H](O)C4)nc4ccsc34)cc2)co1 [Compound 173, [(3R)-3-hydroxy-1-piperidyl]-[7-[[4-(2-methyloxazol-4-yl)phenyl]methyl]thieno[3,2-b]pyridin-5-yl]methanone] | > 10 | 37
Cc1nc(-c2ccc(Cc3cc(C(=O)N4CCC(C)(O)CC4)nc4ccsc34)cc2)co1 [Compound 174, (4-hydroxy-4-methyl-1-piperidyl)-[7-[[4-(2-methyloxazol-4-yl)phenyl]methyl]thieno[3,2-b]pyridin-5-yl]methanone] | > 10 | 45.1
